This assay relates to TGFb/SMAD Signaling Pathway SBE reporter cell line. Kind of assay: TGFb reporter assay (TGFb/SMAD Signaling Pathway SBE luciferase reporter cell line). Format: cell-based. The note with it: 5-6 h preincubation, then TGFb, 18 h, luciferase luminescence. As for the experimental part:
TGFβ/SMAD Signaling Pathway SBE reporter cell line was obtained from BPS Bioscience. Cells were passed, expanded, and stored in liquid nitrogen as per the supplier's instructions with the exception that growth media is changed to DMEM-C with Geneticin (DMEM supplemented with 10% fetal bovine serum, 1×NEAA, 1 mM Pyruvate, 2 mM glutamine, 50 μg/mL penicillin, 50 U/mL streptomycin and 400 μg/mL of Geneticin). The assay media was MEM supplemented with 0.5% fetal bovine serum, 1×NEAA, 1 mM Pyruvate, 50 μg/mL penicillin and 50 U/mL streptomycin.
TGFb/SMAD Signaling Pathway SBE reporter cell line was obtained from BPS Bioscience. Cells were passed/expanded/stored in liquid nitrogen per supplier's instruction with the exception that growth media was changed to DMEM-C with Geneticin (DMEM supplemented with 10% fetal bovine serum, IX NEAA, 1 mM Pyruvate, 2 mM glutamine, 50 μg/mL penicillin, 50 U/mL streptomycin and 400 ug/mL of Geneticin). The assay media was MEM supplemented with 0.5% fetal bovine serum, IX NEAA, 1 mM Pyruvate, 50 μg/mL penicillin and 50 U/mL streptomycin.
Reporter cells were harvested from the tissue culture flasks by incubation in small quantity of Versene at room temperature for three to five minutes after the media in the flask was removed and cells rinsed with PBS. Cells were counted and diluted in the assay media at 0.8×10^6 cells/mL then 50 uL/well were added to 96-well assay plate. Test samples (at desired concentrations diluted in assay media) were added to assay plate containing the 50 uL/well of cells (or media only), 50 uL per well, and incubated for 5-6 hours at 37° C. in a 5% CO2 humidified incubator. After that time, 15 uL of TGFb diluted to 12.5 ng/mL in the assay media was added to the plate. Controls included TGFb titration (from 25 to 0 ng/mL) without inhibitors, and media only (without cells, inhibitor or TGFb). Plates were incubated at 37° C. in a […] humidified incubator for 18 h. Luciferase substrate solution was subsequently added at 75 uL per well, incubated in dark with shaking at room temperature for 10 min, and luminescence was measured using a luminometer.

This is an account of results in patent US20210139477A1, “ALK5 INHIBITORS, CONJUGATES, AND USES THEREOF” (Silverback Therapeutics, Inc., priority 2019, published 2021).

With `Cc1cccc(-c2nc(CNCCOc3ccccc3)[nH]c2-c2ccc3ncnn3c2)n1` [Compound 65], the EC50 was in the range of 0.1 to 10 nM.
`Cc1cccc(-c2nc(CNC(c3ccccc3)c3ccccc3)[nH]c2-c2ccc3ncnn3c2)n1` [Compound 13] came in with an EC50 of 0.1 to 10 nM.
In the case of `Cc1cccc(-c2nc(CNCc3ccccc3-c3cccc(CNC(=O)OC(C)(C)C)c3)[nH]c2-c2ccc3ncnn3c2)n1` [Compound 30], the EC50 was in the range of 100 to 1000 nM.
In the case of `Cc1cccc(-c2nc(CNCc3ccccc3)[nH]c2-c2ccc3nccnc3c2)n1` [Compound 77], the EC50 is 0.1 to 10 nM.
`Cc1cccc(-c2nc(CNCc3cccc(C)c3C)[nH]c2-c2ccc3ncnn3c2)n1` [Compound 45] displayed an EC50 of 0.1 to 10 nM.
With `Cc1cccc(-c2nc(CNCc3ccccc3-c3ccccc3)[nH]c2-c2ccc3ncnn3c2)n1` [Compound 24], the EC50 lay in the range of 0.1 to 10 nM.
Next, `Cc1cccc(-c2nc(CNCc3ccccc3)[nH]c2-c2ccc3c(c2)OCO3)n1` [Compound 76]: 10 to 100 nM.
Next, `Cc1cccc(-c2nc(CNCCN(C)c3ccccc3)[nH]c2-c2ccc3ncccc3n2)n1` [Compound 85]: 0.1 to 10 nM; `Cc1cccc(-c2nc(CNCc3ccccc3C3CCCCC3)[nH]c2-c2ccc3ncnn3c2)n1` [Compound 43]: 100 to 1000 nM.
Molecule `Cc1cccc(-c2nc(CNCc3ccccc3C)[nH]c2-c2ccc3ncnn3c2)n1` [Compound 21] gave an EC50 of 0.1 to 10 nM.
Next, `Cc1cccc(-c2nc(CNCc3cccc(C)c3-c3ccccc3)[nH]c2-c2ccc3ncnn3c2)n1` [Compound 48]: 10 to 100 nM; `COc1ccccc1CNCc1nc(-c2cccc(C)n2)c(-c2ccc3ncnn3c2)[nH]1` [Compound 17]: 10 to 100 nM; `Cc1cccc(-c2nc(CNCc3ccccc3-c3cccc(F)c3)[nH]c2-c2ccc3ncnn3c2)n1` [Compound 37]: 10 to 100 nM.
For `Cc1cccc(-c2nc(CNCc3cccc(Oc4ccccc4)c3)[nH]c2-c2ccc3ncnn3c2)n1` [Compound 56], the EC50 lay within 10 to 100 nM.
Next, `Cc1cccc(-c2nc(CNCCc3ccccc3F)[nH]c2-c2ccc3ncnn3c2)n1` [Compound 59]: 0.1 to 10 nM; `Cc1cccc(-c2nc(CNCc3ccccc3-c3ccncc3)[nH]c2-c2ccc3ncnn3c2)n1` [Compound 42]: 10 to 100 nM.
On to `Cc1cccc(-c2nc(CNCc3ccccc3Oc3ccccc3)[nH]c2-c2ccc3ncnn3c2)n1` [Compound 53], for which the EC50 lay in the range of 0.1 to 10 nM.
As to `Cc1cccc(-c2nc(CNCc3ccccc3-c3ccccc3)[nH]c2-c2ccc3ncccc3n2)n1` [Compound 68], the EC50 was in the range of 10 to 100 nM.
Next, `Cc1cccc(-c2nc(CNCc3ccccc3-c3ccccc3CNC(=O)OC(C)(C)C)[nH]c2-c2ccc3ncnn3c2)n1` [Compound 29]: 100 to 1000 nM; `Cc1cccc(-c2nc(CNCc3cccc(Oc4cccnc4)c3)[nH]c2-c2ccc3ncnn3c2)n1` [Compound 57]: 10 to 100 nM; `COc1ccccc1CCNCc1nc(-c2cccc(C)n2)c(-c2ccc3nccnc3c2)[nH]1` [Compound 87]: 0.1 to 10 nM.
With `COc1ccccc1CCNCc1nc(-c2cccc(C)n2)c(-c2ccc3ncccc3n2)[nH]1` [Compound 84], the EC50 was in the range of 0.1 to 10 nM.
The molecule `Cc1cccc(-c2nc(CNCCc3ccc(F)cc3F)[nH]c2-c2ccc3ncnn3c2)n1` [Compound 63] returned an EC50 of 0.1 to 10 nM.
As for `Cc1cccc(-c2nc(CNCc3ccccc3-c3ccc(CNC(=O)OC(C)(C)C)cc3)[nH]c2-c2ccc3ncnn3c2)n1` [Compound 31], the EC50 was 100 to 1000 nM.
`Cc1cccc(-c2nc(CNCc3ccccc3CC(F)(F)F)[nH]c2-c2ccc3ncnn3c2)n1` [Compound 27] showed an EC50 of 0.1 to 10 nM.
In the case of `Cc1cccc(-c2nc(CNCc3ccccc3F)[nH]c2-c2ccc3ncnn3c2)n1` [Compound 18], the EC50 lay in the range of 0.1 to 10 nM.
Next, `Cc1cccc(-c2nc(CNCc3ccccc3-c3ccc(F)c(F)c3)[nH]c2-c2ccc3ncnn3c2)n1` [Compound 36]: 10 to 100 nM.
`Cc1cccc(-c2nc(CNCCc3c(F)cccc3F)[nH]c2-c2ccc3nccnc3c2)n1` [Compound 82] returned an EC50 of 0.1 to 10 nM.
`COC(=O)[C@H](NCc1nc(-c2cccc(C)n2)c(-c2ccc3ncnn3c2)[nH]1)c1ccccc1` [Compound 15] gave an EC50 of 100 to 1000 nM.
For the molecule `Cc1cccc(-c2nc(CNCc3cccc(Oc4ccncc4)c3)[nH]c2-c2ccc3ncnn3c2)n1` [Compound 58], the EC50 lay within 10 to 100 nM.
With `Cc1cccc(-c2nc(CNCCc3cccc(F)c3)[nH]c2-c2ccc3ncnn3c2)n1` [Compound 61], the EC50 lay in the range of 0.1 to 10 nM.
As to `Cc1cccc(-c2nc(CNCc3ccccc3-c3ccc(F)cc3)[nH]c2-c2ccc3ncnn3c2)n1` [Compound 35], the EC50 is 0.1 to 10 nM.
The figure for `Cc1cccc(-c2nc(CNCc3ccccc3)[nH]c2-c2ccc3ncccc3c2)n1` [Compound 90] is 0.1 to 10 nM.
Take `Cc1cccc(-c2nc(CNCc3cccc(-c4ccccc4)c3)[nH]c2-c2ccc3ncnn3c2)n1` [Compound 51]: the EC50 lay in the range of 100 to 1000 nM.
The figure for `COc1cccc(CNCc2nc(-c3cccc(C)n3)c(-c3ccc4ncnn4c3)[nH]2)c1C` [Compound 46] is 0.1 to 10 nM.
Molecule `Cc1cccc(-c2nc(CNCc3ccccc3C)[nH]c2-c2ccc3nccnc3c2)n1` [Compound 86] came in with an EC50 of 0.1 to 10 nM.
In turn, `Cc1cccc(-c2nc(CNCCc3c(F)cccc3F)[nH]c2-c2ccnc3ccccc23)n1` [Compound 79] displayed an EC50 of 100 to 1000 nM.
As to `CCc1ccccc1CNCc1nc(-c2cccc(C)n2)c(-c2ccc3ncnn3c2)[nH]1` [Compound 22], the EC50 lay in the range of 0.1 to 10 nM.
`Cc1cccc(-c2nc(CNCc3ccccc3-c3ccccc3F)[nH]c2-c2ccc3ncnn3c2)n1` [Compound 38] had an EC50 of 0.1 to 10 nM.
Molecule `Cc1cccc(-c2nc(CNCCCc3ccccc3)[nH]c2-c2ccc3ncnn3c2)n1` [Compound 64] gave an EC50 of 0.1 to 10 nM.
The molecule `Cc1cccc(-c2nc(CNCCN(C)c3ccccc3)[nH]c2-c2ccc3nccnc3c2)n1` [Compound 88] had an EC50 of 0.1 to 10 nM.
In the case of `Cc1cccc(-c2nc(CNCc3ccccc3Oc3cccnc3)[nH]c2-c2ccc3ncnn3c2)n1` [Compound 54], the EC50 was in the range of 0.1 to 10 nM.
With `Cc1cccc(-c2nc(CNCc3ccc(Cl)cc3)[nH]c2-c2ccc3ncnn3c2)n1` [Compound 3], the EC50 was 10 to 100 nM.
`Cc1cccc(-c2nc(CNCc3ccccc3C3CCCC3)[nH]c2-c2ccc3ncnn3c2)n1` [Compound 44] yielded a 50% effective concentration (EC50) of 10 to 100 nM.
`Cc1cccc(-c2nc(CNCc3ccccc3-c3ccccc3CN)[nH]c2-c2ccc3ncnn3c2)n1` [Compound 32] came in with an EC50 of 100 to 1000 nM.
For `Cc1cccc(-c2nc(CNCc3c(Cl)cccc3Cl)[nH]c2-c2ccc3ncnn3c2)n1` [Compound 6], the EC50 fell in the range of 0.1 to 10 nM.
In the case of `Cc1cccc(-c2nc(CNCc3cccc(Cl)c3)[nH]c2-c2ccc3ncnn3c2)n1` [Compound 2], the EC50 was 10 to 100 nM.
The figure for `Cc1cccc(-c2nc(CNCCc3c(F)cccc3F)[nH]c2-c2ccc3ncnn3c2)n1` [Compound 60] is 0.1 to 10 nM.
The molecule `Cc1cccc(-c2nc(CNCc3ccccc3-c3ccccc3)[nH]c2-c2ccc3ncccc3c2)n1` [Compound 91] displayed an EC50 of 10 to 100 nM.
The figure for `Cc1cccc(-c2nc(CNCc3cc(Cl)ccc3Cl)[nH]c2-c2ccc3ncnn3c2)n1` [Compound 5] is 10 to 100 nM.
`Cc1cccc(-c2nc(CNCc3ccccc3-c3cccnc3)[nH]c2-c2ccc3ncnn3c2)n1` [Compound 41] had an EC50 of 0.1 to 10 nM.

Broadly, the EC50 is the concentration giving half of the maximal effect. A lower EC50 goes with a more potent agent.
